≈ marks a conversion by molar mass, not a printed value.
Legend:
[1] = system: Amadori compound formation; test: Hemoglobin-δ-gluconolactone assay of Amadori compound formation; type: biochemical; set-up: inhibition rate of Amadori compound formation: dose or concentration left out as unconfirmed
[2] = system: AGE formation; test: Bovine serum albumin-methylglyoxal assay on AGE formation; type: biochemical; conditions: BSA-methylglyoxal, 37 °C, 48 h
Experimental: Bovine serum albumin (50 mg/mL) was incubated at 37 °C for 48 h with methylglyoxal (100 mM) in sodium phosphate buffer (0.1 M, pH 7.4) containing 0.2 g/L NaN3 in the presence of various concentrations of the compounds (including a control).
(§1) This test was used to evaluate the ability of samples to inhibit cross-linking of the GK peptide in the presence of D-ribose using the method described by Hwang et al. The GK peptide (26.7 mg/mL) was incubated with D-ribose (200 mg/mL) in sodium phosphate buffer (0.5 M, pH 7.4) containing 0.2 g/L NaN3 under sterile conditions at 37 °C for 72 h. […] All reagents and samples were sterilized by filtration through […] membrane filters. The fluorescence intensity was measured at an excitation wavelength of 355 nm and an emission wavelength of 460 nm with a Luminescence spectrometer LS50B (Perkin-Elmer Ltd., Buckinghamshire, England). AG was used as a positive control.

[3] = system: AGEs cross-linking; test: N-acetyl-glycyl-lysine-methyl ester D-ribose assay on AGE cross-linking; type: biochemical; conditions: GK peptide-D-ribose, 37 °C, 72 h
Experimental: as §1

[4] = Water solubility analysis; type: physicochemical
Experimental: CS and derivatives were dissolved in distilled water and incubated at 37 °C with sonication for 1 h to maximize solubility. After sonication, undissolved samples were eliminated by centrifugation (7000× g, 37 °C, 5 min). The supernatants were diluted in methanol and filtered through a 0.45 μm disposable syringe filter (Advantec, Dublin, CA, USA) to analyze the concentration of the samples using HPLC analysis.

[5] = system: NO production in LPS-induced RAW 264.7 cells; test: NO generation in LPS-induced RAW 264.7 cells (Griess); type: cell-based; conditions: 24 h
Experimental: The cytotoxicity of CS and derivatives on RAW 264.7 cells was examined using the MTS assay kit. Cells (1.6 × 10^4/well) were cultured in 96-well plates and treated with samples (10, 25, and 100 μM) for 12, 24, 48, and 72 h. After incubation, 20 μL/well of MTS solution was incubated for 90 min at 37 °C in a humidified 5% CO2 atmosphere. The optical density at 490 nm was measured three times using an EL-800 Universal microplate reader (Bio-Tek Instrument Inc., Winooski, VT, USA). Cell viability of the untreated group was set to 100%. RAW 264.7 cells were seeded into 12-well plates at 4 × 10^5-cells/well, and then incubated with LPS (1 μg/mL) and various concentrations of samples for 24 h. The concentration of nitric oxide (NO) in the medium was measured using the Griess reagent system, as described by the manufacturer. The production of NO was measured at 570 nm using an EL-800 Universal microplate reader (Bio-Tek Instrument Inc., Winooski, VT, USA), and was compared with a sodium nitrite standard calibration curve.

CC(=O)Oc1cc(OC(C)=O)c2c(=O)cc(-c3ccccc3)oc2c1 [5,7-Di-O-acetylchrysin, 5,7-di-O-acetylchrysin]
inhibition rate of Amadori compound formation ([1]; dose-dependent): 1.76–55.13% | IC50 ([1]; early stage of AGE formation): 260 nM | inhibitory activity on Amadori compound formation, fold higher than positive control AG ([1]; relative to Aminoguanidine hydrochloride (IC50 = 109.74 μM)): 422.07 fold | inhibitory activity on Amadori compound formation, fold higher than CS ([1]; relative to CS): 66.96 fold | IC50 [2]: 910 nM | IC50 [3]: 22300 nM | water solubility, fold higher than CS ([4]; relative to CS): 8.83 fold | solubility at 1 h ([4]; thermodynamic from solid, distilled water, 37 °C, sonication 1 h): 265 µM (≈ 89.7 µg/mL) | inhibition of NO [5]: concentration-dependent inhibition

Reference: publication PMC6099615, “Anti-glycation, Carbonyl Trapping and Anti-inflammatory Activities of Chrysin Derivatives” (Molecules : A Journal of Synthetic Chemistry and Natural …, 2018)
